Laboratory results reported in patent US10076519B2 (CYTOKINETICS, INC., priority 2010, dated 2018).

Test system: rabbit skeletal myofibrils (fast skeletal myofibrils)
Test: Activation of fast skeletal myofibrils (PUMA assay, PK/LDH-coupled ATPase at pCa25)
Format: biochemical
Outline: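 Detergent-washed rabbit psoas myofibrils (~90% fast fibres, calcium-regulated) assayed at calcium giving 25% of maximal ATPase rate (pCa25). ADP turnover coupled via pyruvate kinase/lactate dehydrogenase to NADH oxidation, read at 340 nm. Buffer 12 mM PIPES, 2 mM MgCl2, 1 mM DTT, pH 6.8; AC1.4 values derived.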

[1] = median AC1.4 class, procedure of Example 39
[2] = AC1.4 determined according to the procedure of Example 39, reported as class symbols
[3] = median AC1.4 reported as class, procedure of Example 39

Mean AC1.4 [1]	Mean AC1.4 [3]	Structure (SMILES)	also measured
D (D=>20 uM)		NC(=O)c1nccc(-c2ccc(NCC3(c4ncccc4F)CCC3)nn2)n1 [4-[6-({[(3-fluoro-2-pyridyl)cyclobutyl]methyl}ami-no)pyridazin-3-yl]pyrimidine-2-carboxamide]	
		CC(C)(CNc1ccc(C(=O)N2CCNC(=O)C2)nn1)c1ccc(F)cc1 [4-[(6-{[2-(4-fluorophenyl)-2-methylpropyl]amino}pyridazin-3-yl)carbonyl]piperazin-2-one]	Mean AC1.4 [2]: D (D=>20 uM)
		CC(C)(CNc1ccc(C(=O)N2CCNC(C(N)=O)C2)nn1)c1ccc(F)cc1 (stereo not shown) [4-[(6-{[2-(4-fluorophenyl)-2-methylpropyl]amino}pyridazin-3-yl)carbonyl]piperazine-2-carboxamide]	Mean AC1.4 [2]: D (D=>20 uM)
B (B=1-10 uM)		CC(C)(Nc1ccc(-c2cc(C(N)=O)ccc2F)nn1)c1ncccc1F [4-fluoro-3-(6-{[1-(3-fluoro(2-pyridyl))-isopropyl]amino}pyridazin-3-yl)benzamide]	
A (A=<1 uM)		CC(C)(Nc1ccc(-c2cc(C(N)=O)ccc2F)nn1)c1ccc(F)cc1 [4-fluoro-3-(6-{[1-(4-fluorophenyl)-isopropyl]amino}pyridazin-3-yl)benzamide]	
	A (A=<1 uM)	NC(=O)c1ccc(F)c(-c2ccc(NC[C@]3(c4ncccc4F)C[C@H](F)C3)nn2)c1O [4-fluoro-3-[6-({[3-fluoro-1-(3-fluoro(2-pyridyl))cyclobutyl]methyl}ami-no)pyridazin-3-yl]-2-hydroxybenzamide]	
B (B=1-10 uM)		N#Cc1ccc(F)c(-c2ccc(NC[C@]3(c4ncccc4F)C[C@H](F)C3)nn2)c1 [4-fluoro-3-[6-({[3-fluoro-1-(3-fluoro(2-pyridyl))cyclobutyl]methyl}ami-no)pyridazin-3-yl]benzenecarbonitrile]	
A (A=<1 uM)		O=C(O)c1ccc(F)c(-c2ccc(NC[C@]3(c4ncccc4F)C[C@H](F)C3)nn2)c1 [4-fluoro-3-[6-({[3-fluoro-1-(3-fluoro(2-pyridyl))cyclobutyl]methyl}ami-no)pyridazin-3-yl]benzoic acid]	
	C (C=10-20 uM)	Cc1cc(NCC2(c3ncccc3F)CCC2)nnc1-c1cc(C(N)=O)ccc1F [4-fluoro-3-[6-({[(3-fluoro(2-pyridyl))cyclobutyl]methyl}ami-no)-4-methylpyridazin-3-yl]benzamide]	
	A (A=<1 uM)	NC(=O)c1ccc(F)c(-c2ccc(NCC3(c4ncccc4F)CCC3)nn2)c1O [4-fluoro-3-[6-({[(3-fluoro(2-pyridyl))cyclobutyl]methyl}ami-no)pyridazin-3-yl]-2-hydroxybenzamide]	
	A (A=<1 uM)	NC(=O)c1cc(-c2ccc(NC[C@]3(c4ncccc4F)C[C@H](F)C3)nn2)c(F)cc1O [4-fluoro-5-[6-({[3-fluoro-1-(3-fluoro(2-pyridyl))cyclobutyl]methyl}ami-no)pyridazin-3-yl]-2-hydroxybenzamide]	
	A (A=<1 uM)	NC(=O)c1cc(-c2ccc(NCC3(c4ncccc4F)CCC3)nn2)c(F)cc1O [4-fluoro-5-[6-({[(3-fluoro(2-pyridyl))cyclobutyl]methyl}ami-no)pyridazin-3-yl]-2-hydroxybenzamide]	
C (C=10-20 uM)		CC(C)(Nc1ccc(-c2ccc(C(N)=O)cc2)nn1)c1ccccc1 [4-{6-[(1-methyl-1-phenylethyl)amino]pyridazin-3-yl}benzamide]	
	D (D=>20 uM)	Cn1cc(NC(=O)c2ccc(NCC3(c4ncccc4F)CCC3)nn2)nc1C(N)=O [4-{[6-({[(3-fluoro(2-pyridyl))cyclobutyl]methyl}ami-no)pyridazin-3-yl]carbonylamino}-1-methylimidazole-2-carboxamide]	
		CC(C)(CNc1ccc(-c2cncc(C#N)c2)nn1)c1ccccc1Cl [5-(6-{[2-(2-chlorophenyl)-2-methylpropyl]amino}pyridazin-3-yl)pyridine-3-carbonitrile]	Mean AC1.4 [2]: B (B=1-10 uM)
		CC(C)(CNc1ccc(-c2cncc(C(N)=O)c2)nn1)c1ccccc1Cl [5-(6-{[2-(2-chlorophenyl)-2-methylpropyl]amino}pyridazin-3-yl)pyridine-3-carboxamide]	Mean AC1.4 [2]: B (B=1-10 uM)
